Measurements from patent US8586357B2, “Markers of definitive endoderm” (ViaCyte, Inc., priority 2003, dated 2013).

Assays:
[1] = system: definitive endoderm cells vs hESCs; assay: Gene chip analysis (Affymetrix U133 Plus 2.0) of purified definitive endoderm compared to hESCs; format: cell-based, human
Description: In the following experiment, RNA was isolated from purified definitive endoderm and human embryonic stem cell populations. Gene expression was then analyzed by gene chip analysis of the RNA from each purified population. Q-PCR was also performed to further investigate the potential of genes expressed in definitive endoderm, but not in embryonic stem cells, as a marker for definitive endoderm. Human embryonic stem cells (hESCs) were maintained in DMEM/F12 media supplemented with 20% KnockOut Serum Replacement, 4 ng/mL recombinant human basic fibroblast growth factor (bFGF), 0.1 mM 2-mercaptoethanol, L-glutamine, non-essential amino acids and penicillin/streptomycin. hESCs were differentiated to definitive endoderm by culturing for 5 days in RPMI media supplemented with 100 ng/mL of recombinant human activin A, fetal bovine serum (FBS), and penicillin/streptomycin. The concentration of FBS was varied each day as follows: 0.1% (first day), 0.2% (second day), 2% (days 3-5). Cells were isolated by fluorescence activated cell sorting (FACS) in order to obtain purified populations of hESCs and definitive endoderm for gene expression analysis. […] Cells were dissociated using trypsin/EDTA (Invitrogen, cat#25300-054), washed in phosphate buffered saline (PBS) containing 2% human serum and resuspended in 100% human serum on ice for 10 minutes to block non-specific binding. Staining was carried out for 30 minutes on ice by adding 200 uL of phycoerythrin-conjugated antibody to 5×10^6 cells in 800 uL human serum. Cells were washed twice with 8 mL of PBS buffer and resuspended in 1 mL of the same. FACS isolation was carried out by the core facility of The Scripps Research Institute using a FACS Vantage (BD Biosciences). Cells were collected directly into RLT lysis buffer and RNA was isolated by RNeasy according to the manufacturers instructions (Qiagen). Purified RNA was submitted in duplicate to Expression Analysis (Durham, N.C.) for generation of the expression profile data using the Affymetrix platform and U133 Plus 2.0 high-density oligonucleotide arrays. Data presented is a group comparison that identifies genes differentially expressed between the two populations, hESCs and definitive endoderm. […] The “Gene_Symbol” column refers to the unique name given to the gene by the HUGO Gene Nomenclature Committee. The “Raw Fold Change” column refers to the fold difference in signal for each gene in definitive endoderm compared to hESCs. The “Unigene,” “LocusLink,” and “OMIM” columns refer to identifiers that are descriptive and functional annotations derived from current National Center for Biotechnology Information (NCBI) releases of the UniGene, LocusLink, OMIM, and HomoloGene publicly available databases. […]

[2] = system: human definitive endoderm cells; assay: Differentiation factor screening: Q-PCR of albumin, PROX1 and TITF1; format: cell-based
Description: To exemplify the differentiation factor screening methods described herein, populations of human definitive endoderm cells produced using the methods described herein were separately provided with several candidate differentiation factors while determining the normalized expression levels of certain marker gene products at various time points.
Human definitive endoderm cells were produced as described in the foregoing Examples. In brief, hESCs cells were grown in the presence of 100 ng/ml activin A in low serum RPMI medium for four days, wherein the fetal bovine serum (FBS) concentration on day 1 was 0%, on day 2 was 0.2% and on days 3-4 was 2%. After formation of definitive endoderm, beginning on day 5 and ending on day 10, cell populations maintained in individual plates in RPMI containing 0.2% FBS were treated with one of: Wnt3A at 20 ng/ml, FGF2 at 5 ng/ml or FGF2 at 100 ng/ml. The expression of marker gene products for albumin, PROX1 and TITF1 were quantitated using Q-PCR.

[3] = system: definitive endoderm cells; assay: Maintenance and expansion of definitive endoderm cells in culture in the presence of activin; format: cell-based, human
Description: Definitive endoderm cells produced by methods described herein have been maintained and expanded in culture in the presence of activin for greater than 50 days without appreciable differentiation. In such cases, SOX17, CXCR4, MIXL1, GATA4, HNF3β expression is maintained over the culture period. Additionally, TM, SPARC, OCT4, AFP, SOX7, ZIC1 and BRACH were not detected in these cultures. It is likely that such cells can be maintained and expanded in culture for substantially longer than 50 days without appreciable differentiation.

[4] = system: hESCs (hESCyt-25); assay: Q-PCR gene expression assay of marker genes in differentiating hESCs; format: cell-based, human; settings: Wnt3a added to activin A and activin B treated cultures; FIG. 23
Description: In the following experiments, real-time quantitative RT-PCR (Q-PCR) was the primary assay used for screening the effects of various treatments on HESC differentiation. In particular, real-time measurements of gene expression were analyzed for multiple marker genes at multiple time points by Q-PCR. Marker genes characteristic of the desired as well as undesired cell types were evaluated to gain a better understanding of the overall dynamics of the cellular populations. The strength of Q-PCR analysis includes its extreme sensitivity and relative ease of developing the necessary markers, as the genome sequence is readily available. Furthermore, the extremely high sensitivity of Q-PCR permits detection of gene expression from a relatively small number of cells within a much larger population. In addition, the ability to detect very low levels of gene expression provides indications for “differentiation bias” within the population. The bias towards a particular differentiation pathway, prior to the overt differentiation of those cellular phenotypes, is unrecognizable using immunocytochemical techniques. […] Additionally, Q-PCR provides a mechanism by which to evaluate the success of a differentiation protocol in a quantitative format at semi-high throughput scales of analysis.
The approach taken here was to perform relative quantitation using SYBR Green chemistry on a Rotor Gene 3000 instrument (Corbett Research) and a two-step RT-PCR format. Such an approach allowed for the banking of cDNA samples for analysis of additional marker genes in the future, thus avoiding variability in the reverse transcription efficiency between samples.
Primers were designed to lie over exon-exon boundaries or span introns of at least 800 bp when possible, as this has been empirically determined to eliminate amplification from contaminating genomic DNA.
We routinely used Q-PCR to measure the gene expression of multiple markers of target and non-target cell types in order to provide a broad profile description of gene expression in cell samples. The markers relevant for the early phases of hESC differentiation (specifically ectoderm, mesoderm, definitive endoderm and extra-embryonic endoderm) and for which validated primer sets are available are provided below in Table 1. […] This is an important fact since the hESCs were often grown on mouse feeder layers. Most typically, triplicate samples were taken for each condition and independently analyzed in duplicate to assess the biological variability associated with each quantitative determination.
To generate PCR template, total RNA was isolated using RNeasy (Qiagen) and quantitated using RiboGreen (Molecular Probes). Reverse transcription from 350-500 ng of total RNA was carried out using the iScript reverse transcriptase kit (BioRad), which contains a mix of oligo-dT and random primers. Each 20 μL reaction was subsequently diluted up to 100 μL total volume and 3 μL was used in each 10 μL Q-PCR reaction containing 400 nM forward and reverse primers and 5 μL 2×SYBR Green master mix (Qiagen). Two step cycling parameters were used employing a 5 second denature at 85-94° C. (specifically selected according to the melting temp of the amplicon for each primer set) followed by a 45 second anneal/extend at 60° C. Fluorescence data was collected during the last 15 seconds of each extension phase. A three point, 10-fold dilution series was used to generate the standard curve for each run and cycle thresholds (Ct's) were converted to quantitative values based on this standard curve. The quantitated values for each sample were normalized to housekeeping gene performance and then average and standard deviations were calculated for triplicate samples. At the conclusion of PCR cycling, a melt curve analysis was performed to ascertain the specificity of the reaction. A single specific product was indicated by a single peak at the Tm appropriate for that PCR amplicon. […]

[5] = fold difference in gene chip signal (Affymetrix U133 Plus 2.0) for each gene in CXCR4-purified definitive endoderm (5 days, 100 ng/mL activin A) compared to SSEA4-purified hESCs
[6] = fold difference in signal for each gene in definitive endoderm (CXCR4-purified, 5 days 100 ng/mL activin A) compared to hESCs (SSEA4-purified), Affymetrix U133 Plus 2.0

APOA1
Raw Fold Change [1, 5]: 15.05 fold

BMP2
Raw Fold Change [1, 5]: 7.76 fold

FGF2: growth factor; candidate differentiation factor
expression of the TITF1 marker gene as compared to definitive endoderm cells on day 4 ([2]; 100 ng/ml FGF2, days 7, 9 and 10, FIG. 36C): substantially increased
expression of the TITF1 gene product as compared to untreated definitive endoderm ([2]; FGF2 at 5 ng/ml, FIG. 36C): very little effect
expression of the albumin gene product as compared to definitive endoderm cells on day 4 ([2]; FGF2 at 5 ng/ml, days 9 and 10, FIG. 36A): substantially increased
expression of the albumin gene product as compared to definitive endoderm cells on day 4 ([2]; FGF2 at 100 ng/ml, days 9 and 10, FIG. 36A): not increased

NODAL
Raw Fold Change [1, 6]: 7.89 fold

NPPB
Raw Fold Change [1, 6]: 35.43 fold

activin
time definitive endoderm cells maintained and expanded in culture without appreciable differentiation [3]: greater than 50 days

B1: Wnt3A: Wnt family growth factor; candidate differentiation factor (protein, UniProt P56704 19-352, looked up)
Protein Wnt-3a: SYPIWWSLAVGPQYSSLGSQPILCASIPGLVPKQLRFCRNYVEIMPSVAEGIKIGIQECQHQFRGRRWNCTTVHDSLAIFGPVLDKATRESAFVHAIASAGVAFAVTRSCAEGTAAICGCSSRHQGSPGKGWKWGGCSEDIEFGGMVSREFADARENRPDARSAMNRHNNEAGRQAIASHMHLKCKCHGLSGSCEVKTCWWSQPDFRAIGDFLKDKYDSASEMVVEKHRESRGWVETLRPRYTYFKVPTERDLVYYEASPNFCEPNPETGSFGTRDRTCNVSSHGIDGCDLLCCGRGHNARAERRREKCRCVFHWCCYVSCQECTRVYDVHTCK
SOX17 gene expression over that of activins alone [4]: increases
expression of the albumin gene product as compared to untreated definitive endoderm cells ([2]; 20 ng/ml Wnt3A, days 9 and 10, FIG. 36A): increased
